From PubChem BioAssay (NCI)
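Tested at 5 concentrations; 48 h exposure; 96-well plates; endpoints linearly interpolated, else capped at highest concentration. Here, GI50 denotes the concentration required for 50% inhibition of growth. Definition used: TGI = concentration required for complete inhibition of growth.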

Columns and labels:
Test in all cases: NCI tumour cell line growth inhibition, 48 h
786-0 renal = system: 786-0 renal
A498 renal = system: A498 renal
A549 NSCLC = system: A549 NSCLC
ACHN renal = system: ACHN renal
BT-549 breast = system: BT-549 breast
CAKI-1 renal = system: CAKI-1 renal
CCRF-CEM leukemia = system: CCRF-CEM leukemia
COLO 205 colon = system: COLO 205 colon
DU-145 prostate = system: DU-145 prostate
EKVX NSCLC = system: EKVX NSCLC
HCC-2998 colon = system: HCC-2998 colon
HCT-116 colon = system: HCT-116 colon
HCT-15 colon = system: HCT-15 colon
HL-60(TB) leukemia = system: HL-60(TB) leukemia
HOP-62 NSCLC = system: HOP-62 NSCLC
HOP-92 NSCLC = system: HOP-92 NSCLC
HS 578T breast = system: HS 578T breast
HT29 colon = system: HT29 colon
IGROV1 ovarian = system: IGROV1 ovarian
K-562 leukemia = system: K-562 leukemia
KM12 colon = system: KM12 colon
LOX IMVI melanoma = system: LOX IMVI melanoma
M14 melanoma = system: M14 melanoma
MALME-3M melanoma = system: MALME-3M melanoma
MCF7 breast = system: MCF7 breast
MDA-MB-231 breast = system: MDA-MB-231 breast
MOLT-4 leukemia = system: MOLT-4 leukemia
NCI-H226 lung = system: NCI-H226 lung
NCI-H23 lung = system: NCI-H23 lung

N#Cc1ccc(/C=N/NC(=O)c2[nH]c3ccc(Br)cc3c2-c2ccccc2)s1
GI50 (786-0 renal): 395 nM | TGI (786-0 renal): 13200 nM | GI50 (A498 renal): 6540 nM | TGI (A498 renal): 22500 nM | GI50 (A549 NSCLC): 379 nM | TGI (A549 NSCLC): 13000 nM | GI50 (ACHN renal): 277 nM | TGI (ACHN renal): 9750 nM | GI50 (BT-549 breast): 250 nM | TGI (BT-549 breast): 1330 nM | GI50 (CAKI-1 renal): 374 nM | TGI (CAKI-1 renal): 17200 nM | GI50 (CCRF-CEM leukemia): 173 nM | TGI (CCRF-CEM leukemia): > 100000 nM | GI50 (COLO 205 colon): 1690 nM | TGI (COLO 205 colon): 4860 nM | GI50 (DU-145 prostate): 365 nM | TGI (DU-145 prostate): 13700 nM | GI50 (EKVX NSCLC): 1210 nM | TGI (EKVX NSCLC): 26300 nM | GI50 (HCC-2998 colon): 488 nM | TGI (HCC-2998 colon): 9650 nM | GI50 (HCT-116 colon): 118 nM | TGI (HCT-116 colon): 11100 nM | GI50 (HCT-15 colon): 129 nM | TGI (HCT-15 colon): 9510 nM | GI50 (HL-60(TB) leukemia): 52.9 nM | TGI (HL-60(TB) leukemia): 617 nM | GI50 (HOP-62 NSCLC): 519 nM | TGI (HOP-62 NSCLC): 11600 nM | GI50 (HOP-92 NSCLC): 645 nM | TGI (HOP-92 NSCLC): 11600 nM | GI50 (HS 578T breast): 616 nM | TGI (HS 578T breast): 24700 nM | GI50 (HT29 colon): 148 nM | TGI (HT29 colon): 6900 nM | GI50 (IGROV1 ovarian): 221 nM | TGI (IGROV1 ovarian): 9100 nM | GI50 (K-562 leukemia): 109 nM | TGI (K-562 leukemia): > 100000 nM | GI50 (KM12 colon): 793 nM | TGI (KM12 colon): 18700 nM | GI50 (LOX IMVI melanoma): 309 nM | TGI (LOX IMVI melanoma): 1430 nM | GI50 (M14 melanoma): 235 nM | TGI (M14 melanoma): 14600 nM | GI50 (MALME-3M melanoma): 564 nM | TGI (MALME-3M melanoma): 24900 nM | GI50 (MCF7 breast): 110 nM | TGI (MCF7 breast): 5870 nM | GI50 (MDA-MB-231 breast): 545 nM | TGI (MDA-MB-231 breast): 4000 nM | GI50 (MOLT-4 leukemia): 243 nM | TGI (MOLT-4 leukemia): 30200 nM | GI50 (NCI-H226 lung): 579 nM | TGI (NCI-H226 lung): 6270 nM | GI50 (NCI-H23 lung): 254 nM
